Test results from the supplement of paper PMC11061612.

What was measured:
[1] = test system: CAL-62 (Thyroid Gland Carcinoma); assay: Bliss excess, mean over the matrix (fraction); higher = more synergy
Method in brief: (§1)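 Bliss excess equals the observed combination effect minus the expected value EA + EB − EA·EB, where EA and EB are the effects of each agent alone. Combination Emax is the second-highest inhibition within the matrix. Inhibition was scaled from CellTiter-Glo 2.0 luminescence, with 0 set by vehicle wells and 1 by blank wells, after 72 hours of two-drug dosing of cells plated in 1536-well plates.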

IST-MES1 (Mesothelioma) [2] = assay: as above
Method in brief: as §1

[3] = test system: PC-3_[JPC-3] (Lung Adenocarcinoma); assay: as above
Method in brief: as §1

[4] = test system: RKN (Other Solid Carcinomas); assay: as above
Method in brief: as §1

[5] = test system: CAL-62 (Thyroid Gland Carcinoma); assay: combination Emax (second highest fraction inhibited in the dose matrix, 72 h); higher = more inhibition; extreme values may be limits of the assay
Method in brief: as §1

[6] = test system: HSC-39 (Gastric Carcinoma); assay: as above
Method in brief: as §1

IST-MES1 (Mesothelioma) [7] = assay: as above
Method in brief: as §1

[8] = test system: L-1236 (Hodgkin's Lymphoma); assay: as above
Method in brief: as §1

[9] = test system: MKN45 (Gastric Carcinoma); assay: as above
Method in brief: as §1

[10] = test system: OPM-2 (Plasma Cell Myeloma); assay: as above
Method in brief: as §1

[11] = test system: PANC-03-27 (Pancreatic Carcinoma); assay: as above
Method in brief: as §1

[12] = test system: PC-3_[JPC-3] (Lung Adenocarcinoma); assay: as above
Method in brief: as §1

[13] = test system: PSN1 (Pancreatic Carcinoma); assay: as above
Method in brief: as §1

[14] = test system: RCM-1 (Colorectal Carcinoma); assay: as above
Method in brief: as §1

SF539 (Glioblastoma) = assay: as above
Method in brief: as §1

[15] = test system: SHP-77 (Small Cell Lung Carcinoma); assay: as above
Method in brief: as §1

SK-MEL-2 (Melanoma) = assay: as above
Method in brief: as §1

[16] = test system: SK-PN-DW (Other Solid Carcinomas); assay: as above
Method in brief: as §1

[17] = test system: TE-8 (Esophageal Squamous Cell Carcinoma); assay: as above
Method in brief: as §1

[18] = test system: VAL (B-Cell Non-Hodgkin's Lymphoma); assay: as above
Method in brief: as §1

Compound	Bliss excess [1]	Bliss excess (IST-MES1 (Mesothelioma) [2])	Bliss excess [3]	Bliss excess [4]	combination Emax [5]	combination Emax [6]	combination Emax (IST-MES1 (Mesothelioma) [7])	combination Emax [8]	combination Emax [9]	combination Emax [10]	combination Emax [11]	combination Emax [12]	combination Emax [13]	combination Emax [14]	combination Emax (SF539 (Glioblastoma))	combination Emax [15]	combination Emax (SK-MEL-2 (Melanoma))	combination Emax [16]	combination Emax [17]	combination Emax [18]
C[C@@H](Nc1cc(F)cc(F)c1)c1cc(C(=O)N(C)C)cc2c(=O)cc(N3CCOCC3)oc12 [AZD8186] + C1CN(CCC1(C(=O)N[C@@H](CCO)C2=CC=C(C=C2)Cl)N)C3=NC=NC4=C3C=CN4 [AZD5363] (first compound max 10 µM, 7x7, partner max 10 µM)	-0.0203	-0.0703	-0.0245	-0.0448	0.165	0.603	0.267	0.722	0.455	0.922	0.315	0.295	0.357	0.233	0.538	0.275	0.113	0.575	0.455	0.555
CN(CCO)CC[C@H](CSc1ccccc1)Nc1ccc(S(=O)(=O)NC(=O)c2ccc(N3CCC([C@@H](O)c4ccccc4-c4ccc(Cl)cc4)CC3)cc2)cc1S(=O)(=O)C(F)(F)F [AZD4320] + Nc1ccn([C@@H]2O[C@H](CO)[C@@H](O)C2(F)F)c(=O)n1 [Gemcitabine] (first compound max 1 µM, 7x7, partner max 0.3 µM)	0.0487	0.0448	0.016	-0.0164	0.911	0.869	0.8	1	0.582	0.628	0.737	0.675	0.885	0.37	0.945	0.549	0.0969	0.165	0.57	1
CN(CCO)CC[C@H](CSc1ccccc1)Nc1ccc(S(=O)(=O)NC(=O)c2ccc(N3CCC([C@@H](O)c4ccccc4-c4ccc(Cl)cc4)CC3)cc2)cc1S(=O)(=O)C(F)(F)F [AZD4320] + CC(=O)O[C@H]1C(=O)[C@@]2(C)[C@H]([C@H](OC(=O)c3ccccc3)[C@]3(O)C[C@H](OC(=O)[C@H](O)[C@@H](NC(=O)c4ccccc4)c4ccccc4)C(C)=C1C3(C)C)[C@]1(OC(C)=O)CO[C@@H]1C[C@@H]2O [Paclitaxel] (first compound max 1 µM, 7x7, partner max 3 µM)	0.0036	0.0787	0.0232	0.0901	0.951	1	0.873	1	0.751	1	0.885	0.76	0.942	0.54	1	1	0.915	0.918	0.967	1
N#Cc1cnc(Nc2cc(NC[C@H]3CNCCO3)c(C(F)(F)F)cn2)cn1 [SRA737] + O=c1[nH]cc(F)c(=O)[nH]1 [5-Fluorouracil] (first compound max 10 µM, 7x7, partner max 20 µM)	-0.0187	-0.0169	-0.0443	-0.0501	0.371	1	0.288	0.94	0.697	0.84	0.725	0.102	0.748	0.578	0.915	0.786	0.113	0.956	0.413	0.775
N#Cc1cnc(Nc2cc(NC[C@H]3CNCCO3)c(C(F)(F)F)cn2)cn1 [SRA737] + C=CCn1c(=O)c2cnc(Nc3ccc(N4CCN(C)CC4)cc3)nc2n1-c1cccc(C(C)(C)O)n1 [AZD1775] (first compound max 10 µM, partner max 1 µM)	0.043	0.0282	-0.0239	0.0124	0.727	1	0.442	0.952	0.742	0.93	0.858	0.26	0.642	0.631	0.986	0.722	0.772	0.913	0.777	0.797
C[C@@H]1COCCN1c1cc(C2([S@](C)(=N)=O)CC2)nc(-c2ccnc3[nH]ccc23)n1 [AZD6738] + Nc1ccn([C@@H]2O[C@H](CO)[C@@H](O)C2(F)F)c(=O)n1 [Gemcitabine] (first compound max 10 µM, 7x7, partner max 0.3 µM)	-0.0064	-0.0097	0.0434	0.0982	0.871	1	0.798	0.918	0.756	0.942	0.737	0.665	0.893	0.744	0.981	0.931	0.454	0.957	0.83	0.809
